Laboratory results from ChEMBL document CHEMBL6074642, “Natural and Bioinspired Lipidic Alkynylcarbinols as Leishmanicidal, Antiplasmodial, Trypanocidal, Fungicidal, Antibacterial, and Antimycobacterial Agents” (J Nat Prod, 2024).
Converted amounts (≈) assume the structure as drawn.

Key:
Leishmania mexicana [1] = test: Antileishmanial activity against Leishmania mexicana amastigotes; format: functional, organism-based
Leishmania mexicana [2] = test: Antileishmanial activity against Leishmania mexicana promastigotes; format: functional, organism-based
Bacillus subtilis [3] = test: Antibacterial activity against Bacillus subtilis PY79 assessed as reduction in bacterial growth; format: functional, organism-based
Phytophthora capsici = test: Antifungal activity against Phytophthora capsici; format: functional, organism-based
Monilinia fructigena = test: Antifungal activity against Monilinia fructigena; format: functional, organism-based
Trypanosoma brucei = test: Antitrypanosomal activity against Trypanosoma brucei assessed as inhibition of parasite growth incubated for 72 hrs by resazurin reagent fluorimetric analysis; format: functional, organism-based
Plasmodium falciparum [4] = test: Antiparasitic activity against Plasmodium falciparum K1 assessed as reduction in parasite growth; format: functional, organism-based
Leishmania donovani [5] = test: Antileishmanial activity against Leishmania donovani amastigotes infected in J774 macrophage assessed as inhibition of parasite growth incubated for 48 hrs by luciferase assay; format: functional, organism-based; conditions: J774, 48 h
[6] = test system: Mycobacterium tuberculosis; test: Antimycobacterial activity against Mycobacterium tuberculosis H37Rv assessed as inhibition of bacterial growth incubated for 7 to 14 days by MABA assay; format: functional; conditions: time 7-14 day
Plasmodium falciparum [7] = test: Antiplasmodial activity against Plasmodium falciparum assessed as parasite growth inhibition; format: functional, organism-based
Enterococcus faecalis = test: Antibacterial activity against Enterococcus faecalis; format: functional
Streptococcus pyogenes = test: Antibacterial activity against Streptococcus pyogenes assessed as bacterial growth inhibition; format: functional
Bacillus subtilis [8] = test: Antibacterial activity against Bacillus subtilis; format: functional
Pseudomonas aeruginosa [9] = test: Antibacterial activity against Pseudomonas aeruginosa assessed as reduction in bacterial growth incubated for 24 hrs by broth microdilution method; format: functional, organism-based
[10] = test system: Mycobacterium intracellulare; test: Antibacterial activity against Mycobacterium intracellulare; format: functional, organism-based
Bacillus subtilis [11] = test: Antibacterial activity against Bacillus subtilis NBRC 3513; format: functional
Pseudomonas aeruginosa [12] = test: Antibacterial activity against Pseudomonas aeruginosa ATCC 15442 […] assessed as reduction in bacterial growth after 18 to 20 hrs by CLSI-based broth microdilution assay; format: functional; conditions: time 18-20 hrs
Staphylococcus aureus [13] = test: Antibacterial activity against methicillin-resistant Staphylococcus aureus SAP0017 assessed as reduction in bacterial growth; format: functional
Escherichia coli [14] = test: Antibacterial activity against Escherichia coli DC2; format: functional
Staphylococcus aureus [15] = test: Antibacterial activity against methicillin-resistant Staphylococcus aureus K147 assessed as reduction in bacterial growth; format: functional
Leishmania amazonensis = test: Antileishmanial activity against leishmania amazonensis promastigotes MHOM/BR/77/LTB0016 assessed as assessed as parasite growth inhibition incubated for 72 hrs by Alamar Blue assay; format: functional, organism-based; conditions: MHOM/BR/77/LTB0016, 72 h
Staphylococcus aureus [16] = test: Antibacterial activity against Staphylococcus aureus SAP0017 assessed as reduction in bacterial growth; format: functional
Bacillus subtilis [17] = test: Antibacterial activity against Bacillus subtilis assessed as reduction in microbial growth; format: functional
Staphylococcus aureus [18] = test: Antimicrobial activity against methicillin-sensitive Staphylococcus aureus K147 assessed as reduction in microbial growth; format: functional
[19] = test system: Mycobacterium tuberculosis; test: Antimycobacterial activity against Mycobacterium tuberculosis Erdman; format: functional
[20] = test system: Mycobacterium tuberculosis; test: Antimycobacterial activity against Mycobacterium tuberculosis Erdman ATCC 35801; format: functional
[21] = test system: Mycobacterium tuberculosis; test: Antimycobacterial activity against Mycobacterium tuberculosis H37Rv; format: functional
Escherichia coli [22] = test: Antibacterial activity against Escherichia coli DC2 assessed as reduction in bacterial growth; format: functional
Alternaria kikuchiana = test: Antifungal activity against Alternaria kikuchiana; format: functional, organism-based
[23] = test system: Mycobacterium tuberculosis; test: Antimycobacterial activity against Mycobacterium tuberculosis H37Rv assessed as inhibition of bacterial growth by MABA assay; format: functional
[24] = test system: Mycobacterium tuberculosis; test: Antimycobacterial activity against Mycobacterium tuberculosis Erdman assessed as inhibition of bacterial growth by MABA assay; format: functional
[25] = test system: Colletotrichum gloeosporioides; test: Antifungal activity against Colletotrichum gloeosporioides; format: functional, organism-based
Bipolaris sorokiniana = test: Antifungal activity against Cochliobolus sativus; format: functional, organism-based
Leishmania donovani [26] = test: Antileishmanial activity against amastigote form of Leishmania donovani infected in BALB/c mouse assessed as inhibition of parasite growth in liver at 10 mg/kg, po measured for 7 days by geimsa staining based analysis relative to control; format: functional; set-up: scale not given: the % may be the effect or the level left; conditions: time 7 day

C=CCCCCC/C=C\CC#CC#C[C@@H](O)C=C gave an IC50 (Leishmania mexicana [1]) of 0.18 µg/mL (≈ 0.743 µM) and an IC50 (Leishmania mexicana [2]) of 0.28 µg/mL (≈ 1.16 µM).

C#CC(O)/C=C/C(O)CCCC(O)CC#CC(O)C#CC(O)CCCC(=O)CCCCC/C=C/C(O)CCCCCCCCCCCCC(O)C(O)C(O)C#CC(=O)O (configuration not stated) gave an IC50 (Bacillus subtilis [3]) of 12 µg/mL (≈ 14.5 µM).

C=CC(O)C#CC#CC(O)c1cccs1 (configuration not stated) showed an EC50 (Phytophthora capsici) of 2.1 µg/mL (≈ 9.62 µM) and an EC50 (Monilinia fructigena) of 4 µg/mL (≈ 18.3 µM).

C#CC(O)/C=C/C(O)CCCC(O)CC#CC(O)C#CCCCC(O)/C=C/CCCCCC(=O)CCCCCCCCCCCCCC(O)C(O)C(O)C#CC(=O)O (configuration not stated) showed an IC50 (Bacillus subtilis [3]) of 12 µg/mL (≈ 14.8 µM).

C#CC(O)/C=C/C(O)CCCC(O)CC#CC(O)C#CCCCCC(=O)CCCCC/C=C/C(O)CCCCCCCCCCCCC(O)C(O)C(O)C#CC(=O)O (configuration not stated) gave an IC50 (Bacillus subtilis [3]) of 12 µg/mL (≈ 14.8 µM).

For C=CC(C#CC#CC(O)CCCCCCCCC)OC(C)=O (configuration not stated), the IC50 (Trypanosoma brucei) was 0.46 µM.

C=C[C@H](C#CC#C[C@H](O)CCCCCCCCC)OC(C)=O was tested, and the IC50 (Plasmodium falciparum [4]) was 8.07 µg/mL (≈ 26.5 µM) and the IC50 (Leishmania donovani [5]) was > 10 µM.

Molecule C#CC(O)/C=C/CCCCCCCCC/C=C/CCCCCCCCC/C=C/C(O)C#C (configuration not stated) has an MIC [6] of 1.4 µM (≈ 0.617 µg/mL).

C=C[C@@H](C#CC#C[C@H](O)CCCCCCCCC)OC(C)=O was tested, and the IC50 (Plasmodium falciparum [7]) was 0.341 µg/mL (≈ 1.12 µM), the MIC (Enterococcus faecalis) was 32 µM (≈ 9.74 µg/mL) and the MIC (Streptococcus pyogenes) was 8 µM (≈ 2.44 µg/mL). The IC50 (Leishmania donovani [5]) was 0.63 µM and the MIC (Bacillus subtilis [8]) was 8 µM (≈ 2.44 µg/mL).

CC(C)CCCC/C=C\CCCCCCCCC[C@@H](O)C#CC#CCO was tested, and the IC50 (Pseudomonas aeruginosa [9]) was 1.7 µM and the IC50 [10] was 9.9 µM.

With C#CC(O)/C=C/C(O)CCCC(O)C(O)C#CC(O)C#CCCCCC(=O)CCCCC/C=C/C(O)CCCCCCCCCCCCCC(O)C(O)C#CC(=O)O (configuration not stated) the IC50 (Bacillus subtilis [3]) was 25 µg/mL (≈ 30.7 µM).

C=CC(O)C#CC#CC(O)/C=C\C(O)CCCCCC (configuration not stated) was tested, and the MIC (Bacillus subtilis [11]) was 200 µg/mL (≈ 724 µM), the MIC (Pseudomonas aeruginosa [12]) was 200 µg/mL (≈ 724 µM) and the MIC (Staphylococcus aureus [13]) was 200 µg/mL (≈ 724 µM). For the same molecule, the MIC (Escherichia coli [14]) was 200 µg/mL (≈ 724 µM) and the MIC (Staphylococcus aureus [15]) was 200 µg/mL (≈ 724 µM).

C=CC(O)C#CC#CC(O)/C=C\CCCCCCC (configuration not stated) gave an IC50 (Leishmania amazonensis) of 5.7 µM.

In the case of C=C[C@@H](O)C#CC#C[C@H](O)c1cccs1, the EC50 (Phytophthora capsici) is reported as 31 µg/mL (≈ 142 µM).

Molecule C=C[C@H](O)C#CC#C[C@@H](O)/C=C\CCCCCCC has an MIC (Staphylococcus aureus [16]) of 25 µg/mL (≈ 96 µM), an MIC (Bacillus subtilis [17]) of 12 µg/mL and an MIC (Staphylococcus aureus [18]) of 12 µg/mL. It also gave an MIC [19] of 6 µg/mL (≈ 23 µM), an MIC [20] of 6.2 µg/mL (≈ 23.8 µM) and an MIC [21] of 27 µg/mL (≈ 104 µM). It also gave an MIC (Escherichia coli [22]) of 2.5 µg/mL (≈ 9.6 µM).

For CCCCCCCCCCCCCCCC[C@@H](O)C#CC#CCO, the IC50 (Pseudomonas aeruginosa [9]) was 1.9 µM and the IC50 [10] was 7.7 µM.

C=C[C@@H](O)C#CC#CC/C=C/CCCCCCCC showed an EC50 (Alternaria kikuchiana) of 51 µg/mL (≈ 197 µM).

For CCCCCCCC/C=C\CCCCCCCCC[C@@H](O)C#CC#CCO, the IC50 (Pseudomonas aeruginosa [9]) was 2.9 µM and the IC50 [10] was 17 µM.

C=C[C@@H](C#CC#C[C@@H](O)CCCCCCCCC)OC(C)=O was tested, and the IC50 (Plasmodium falciparum [7]) was 0.27 µg/mL (≈ 0.887 µM) and the IC50 (Leishmania donovani [5]) was 1.3 µM.

With C=CC(O)C#CC#CC(O)C1OC1CCCCCCC (configuration not stated) the MIC [23] was > 60 µg/mL and the MIC [24] was > 60 µg/mL.

C=C[C@H](O)C#CC#CC/C=C/CCCCCCCC was tested, and the EC50 [25] was 46 µg/mL (≈ 178 µM), the EC50 (Bipolaris sorokiniana) was 9 µg/mL (≈ 34.8 µM) and the EC50 (Alternaria kikuchiana) was 41 µg/mL (≈ 159 µM).

CCCCCCCCCCCCC1CC1CCCC(O)C#CC#CCO (configuration not stated) was tested, and the IC50 (Pseudomonas aeruginosa [9]) was 1.8 µM and the IC50 [10] was 14 µM.

In the case of C=C[C@@H](C#CC#C[C@@H](CCCCCCCCC)NCCCC)OC(C)=O, the Activity (Leishmania donovani [26]) is reported as 32% and the IC50 (Leishmania donovani [5]) is reported as 0.03 µM.

Molecule CCCCCC/C=C\CCCCCCCCC[C@@H](O)C#CC#CCO has an IC50 (Pseudomonas aeruginosa [9]) of 2.6 µM and an IC50 [10] of 23 µM.

C#CC(O)/C=C/C(O)CCCC(O)CC#CC(O)C#CCCCCC(=O)CCCCC/C=C/C(O)CCCCCCCCCCCCCC(O)C(O)C#CC(=O)O (configuration not stated) showed an IC50 (Bacillus subtilis [3]) of 12 µg/mL (≈ 15.1 µM).
